# Values of other authors, collected in US20150313829A1, “TOPICAL FORMULATIONS FOR THE PREVENTION AND TREATMENT OF ALOPECIA AND INHIBITION OF HAIR GROWTH” (UNIVERSIDADE FEDERAL DE MINAS GERAIS -UFMG, priority 2012, published 2015).
# System: murine model of alopecia
# Details: WO 01/98325
substance,measurement,value
Asp1-Arg2-VAL3-Tyr4-Ile5-His6-Pro7 [Ang-(1-7)],hair growth,induces hair growth
same,number of mature follicles,increased the number of mature follicles
